The results in this text go back to ChEMBL document CHEMBL1150525, “Phosphate derivatives of d4T as inhibitors of HIV” (Bioorg Med Chem Lett, 1993).

One series concerns C8166. Kind of series: Ability to inhibit the replication of HIV-1 IIIB infected C8166 cells. It counts as functional, cell-based. As to conditions: Homo sapiens.
Series [1] in a line: Toxic concentration against HIV-1 IIIB in C8166 T-cells. It is filed as ADME, cell-based. Conditions: human, read-out: TC50 (the source's name).

Usually EC50 stands for the concentration at which the effect is half-maximal. The low end stands for higher potency in that assay, the high end for lower potency in that assay. Consider `CCCOP(=O)(OCC1C=CC(n2cc(C)c(=O)[nH]c2=O)O1)OCC(Cl)(Cl)Cl` (centres undefined), for which the EC50 with C8166 was found to be 20 µM. In series [1], the CC50 turned out to be 500 µM.
In the case of `CCCOP(=O)(NC(C)C(=O)OC)OCC1C=CC(n2cc(C)c(=O)[nH]c2=O)O1` (centres undefined), in the series with C8166, the EC50 amounted to 200 µM. Further, the CC50 in series [1] turned out to be 250 µM.
Molecule `CCCOP(=O)(OCCC)OCC1C=CC(n2cc(C)c(=O)[nH]c2=O)O1` (centres undefined) registered a concentration giving a half-maximal response (EC50) in the series with C8166 greater than 200 µM. Moreover, in series [1], the CC50 amounted to 200 µM.
In the series with C8166, `Cc1cn(C2C=CC(COP(=O)(OCC(F)(F)F)OCC(F)(F)F)O2)c(=O)[nH]c1=O` (centres undefined) yielded an EC50 of 15 µM. In addition, the CC50 in series [1] turned out to be 500 µM.
For the molecule `COC(=O)C(C)NP(=O)(OCC1C=CC(n2cc(C)c(=O)[nH]c2=O)O1)OCC(Cl)(Cl)Cl` (centres undefined), in the series on C8166, the EC50 amounted to 0.2 µM. Also, in series [1], the CC50 came out at 500 µM.
Take `Cc1cn(C2C=CC(COP(=O)(OCC(Cl)(Cl)Cl)OCC(Cl)(Cl)Cl)O2)c(=O)[nH]c1=O` (centres undefined): the EC50 in the series on C8166 was found to be 0.4 µM. For the same molecule, in series [1], the CC50 stood at 150 µM.
In the series with C8166, `Cc1cn([C@H]2C=C[C@@H](CO)O2)c(=O)[nH]c1=O` [STAVUDINE] gave an EC50 of 0.08 µM. Besides, the CC50 in series [1] worked out at 50 µM.
